Publication PMC2956480, “A bivalent glycopeptide to target two putative carbohydrate binding sites on FimH” (Beilstein Journal of Organic Chemistry, 2010)
Where two headings read alike, the source gives them in different places. Marks after values point to notes of the source that are not given here.

What was measured:
[1] = test system: type 1 fimbriated E. coli (HB101pPKL4); FimH-mediated binding to mannan; conditions: relative to MeMan, IP(MeMan) ≡ 1; ELISA, as reported earlier; ref 34 (DubberMSperlingOLindhorstT KOrg Biomol Chem2006439013912); cited from earlier work
Source text: Table 1 Inhibitory potencies in mannose-specific E. coli adhesion of the bivalent glycopeptide 1 in comparison with reference ligands, as determined by ELISA. IC50-values are average values from three independent assays. S: standard deviation; RIP: relative inhibitory potency based on methyl α-D-mannopyranoside (MeMan) with IP(MeMan) ≡ 1.

[2] = test system: type 1 fimbriated E. coli (HB101pPKL4); FimH-mediated binding to mannan; assay: ELISA, inhibition of mannose-specific type 1 fimbriated E. coli adhesion to mannan-coated microtiter plates; assay type: cell-based
Description: The synthesis of the bivalent glycopeptide 1 was not optimized in order to improve all the individual yields, because it has been the primary goal of this study to test the anti-adhesive properties of this type of ligand. An ELISA was performed as reported earlier, employing type 1 fimbriated E. coli bacteria and mannan-coated microtiter plates. In this assay a mannosidic ligand competes with the polysaccharide mannan adsorbed on a polystyrene microtiter plate for FimH-mediated binding to the type 1 fimbriated bacteria. The inhibitory ligand is employed in serial dilutions. This leads to inhibition curves, from which IC50-values can be deduced. The IC50-values reﬂect the inhibitor concentration that causes 50% inhibition of bacterial binding to mannan. […] Here, RIPs were based on the IC50-value determined for MeMan on the same plate, which was defined as IP ≡ 1. […]
An ELISA protocol was used to determine the IC50-value of the bivalent target glycopeptide 1 in comparison with monovalent reference ligands, employing mannan-coated microtiter plates and type 1 fimbriated E. coli (HB101pPKL4) as described earlier Optical densities (ODs) were measured on an AMP 400 COM ELISA reader at 405 nm (reference wavelength 492 nm). The percentage inhibition was calculated as {[OD(nI)-OD(I)] × 100 × [OD(nI)]^−1} (nI: no inhibitor, I: with inhibitor). […]

Compound	RIP (relative inhibitory potency) [1]	IC50 ([2]; mannan from Saccharomyces cerversiae coated (1 mg × ml^−1, 50 mM aq Na2CO3, pH 9.6), type 1 fimbriated E. coli (HB101pPKL4), OD at 405 nm (reference 492 nm), inhibitor in serial dilutions, sigmoidal fit, average values from three independent assays, S (in parentheses): standard deviation, read-out: IC50 (inhibitor concentration that causes 50% inhibition of bacterial binding to mannan)) [µM]	RIP (relative inhibitory potency) ([2]; relative to IC50 of MeMan on the same plate, IP(MeMan) ≡ 1, type 1 fimbriated E. coli on mannan)
C=CCO[C@H]1O[C@H](CO)[C@@H](O)[C@H](O[C@H]2O[C@H](CO)[C@@H](O)[C@H](O)[C@@H]2O)[C@@H]1O [allyl Man(1,3)Man, allyl 3-O-α-D-mannosyl-α-D-mannoside]	7^a	–	–
C=CCO[C@H]1O[C@H](CO[C@H]2O[C@H](CO)[C@@H](O)[C@H](O)[C@@H]2O)[C@@H](O)[C@H](O[C@H]2O[C@H](CO)[C@@H](O)[C@H](O)[C@@H]2O)[C@@H]1O [allyl Man(1,3)[Man(1,6)]Man, allyl 3,6-di-O-(α-D-mannosyl)-α-D-mannoside]	20^a	–	–
C=CCO[C@H]1O[C@H](CO[C@H]2O[C@H](CO)[C@@H](O)[C@H](O)[C@@H]2O)[C@@H](O)[C@H](O)[C@@H]1O [allyl Man(1,6)Man, allyl 6-O-α-D-mannosyl-α-D-mannoside]	0.5^a	–	–
CO[C@H]1O[C@H](CO)[C@@H](O)[C@H](O)[C@@H]1O [MeMan, methyl α-D-mannopyranoside]	–	2900	1
